Assay results reported in patent US7531502B2, “Diagnostic conjugate useful for intracellular imaging and for differentiating between tumor- and non-tumor cells” (Deutsches Krebsforschungszentrum Stiftung Des Offentlichen …, priority 2002, dated 2009).

System: HeLa cervix carcinoma cells
Format: cell-based, human
Protocol: (a) Kinetic Studies: HeLa-cell-Uptake of the Gd-complex-transporter [without Address-sequence or with Either Antisense (ACGT)- or Random-sequence (RCGT)] Compared to Magnevist®. Living HeLa-cells were harvested and divided into tubes (Falcon) (Cell No.: 20×10^6 cells per tube). The Gd-complex-transporter without address-sequence and the Magnevist® were each dissolved in MEM culture medium in a concentration of 100 pM and were then incubated for 10, 20, 30 and 60 minutes. […] T1 and T2 relaxation-times within the pellets of both tubes were measured to evaluate the intracellular relaxivity of the respective contrast agents (R=1/T1). The T1-relaxation time was measured by means of an inversion-recovery-sequence (TR: 5000 ms/TE: 76 ms/TI: 25-4000 ms, 15 different TI-values, scan-time 15×25 sec, FOV: 160 mm×160 mm, Matrix: 132×256, slice thickness: 7 mm, pixel size: 1.21×0.63 mm). T2 relaxation-time was measured by a multi-echo-sequence (TR: 5000 ms/16 TE-values: 30 ms−245 ms, FOV: 250 mm×250 mm, Matrix: 256×256, slice thickness: 5 mm, pixel size: 0.98×0.98 mm, scan time: 21 min 21 sec). […] This procedure was repeated hourly until no signal increase compared to the control tube (HeLa cells or lymphocytes in MEM medium without contrast agent) could be detected in T1 weighted sequences.

## CNC[C@H](O)[C@@H](O)[C@H](O)[C@H](O)CO.CNC[C@H](O)[C@@H](O)[C@H](O)[C@H](O)CO.O=C([O-])CN(CCN(CC(=O)[O-])CC(=O)O)CCN(CC(=O)[O-])CC(=O)O.[Gd+3] [Magnevist®, reference compound]
HeLa cells, 100 pM, 1 hour incubation
  MR signal change compared with HeLa cells incubated solely in MEM: no signal change
HeLa-cell pellets after incubation, inversion-recovery T1 measurement
  relaxivity R (R=1/T1) within the HeLa-cell pellets: 0.000995
